Test results taken from the NIST ThermoML archive (doi:10.1021/je900690d).

Experiment: mean ionic activity coefficient (dimensionless); mn = molality of the nth substance listed, in mol/kg
Conditions: 101 kPa, Liquid, Electrochemical Cell

[Cl-].[K+] [potassium chloride] + O
Conditions | mean ionic activity coefficient
278.15 K, m1 = 0.0025 | 0.9474
278.15 K, m1 = 0.0054 | 0.9254
278.15 K, m1 = 0.0083 | 0.91
278.15 K, m1 = 0.014 | 0.8876
278.15 K, m1 = 0.0224 | 0.8637
278.15 K, m1 = 0.034 | 0.8398
278.15 K, m1 = 0.051 | 0.8137
278.15 K, m1 = 0.0752 | 0.7863
278.15 K, m1 = 0.1147 | 0.754
278.15 K, m1 = 0.1839 | 0.7149
278.15 K, m1 = 0.277 | 0.6787
278.15 K, m1 = 0.3883 | 0.6474
278.15 K, m1 = 0.5559 | 0.6129
278.15 K, m1 = 0.7102 | 0.5888
278.15 K, m1 = 0.8997 | 0.5653
278.15 K, m1 = 1.063 | 0.5488
278.15 K, m1 = 1.246 | 0.5333
278.15 K, m1 = 1.405 | 0.522
278.15 K, m1 = 1.547 | 0.5131
288.15 K, m1 = 0.0026 | 0.946
288.15 K, m1 = 0.005 | 0.9269
288.15 K, m1 = 0.0077 | 0.9118
288.15 K, m1 = 0.0129 | 0.8901
288.15 K, m1 = 0.0183 | 0.8733
288.15 K, m1 = 0.026 | 0.8543
288.15 K, m1 = 0.0362 | 0.8346
288.15 K, m1 = 0.0512 | 0.8123
288.15 K, m1 = 0.0744 | 0.7864
288.15 K, m1 = 0.1053 | 0.7607
288.15 K, m1 = 0.1534 | 0.7316
288.15 K, m1 = 0.2433 | 0.6945
288.15 K, m1 = 0.3142 | 0.6736
288.15 K, m1 = 0.4008 | 0.6536
288.15 K, m1 = 0.506 | 0.6346
288.15 K, m1 = 0.6305 | 0.6167
288.15 K, m1 = 0.7893 | 0.5987
288.15 K, m1 = 0.9633 | 0.5828
288.15 K, m1 = 1.142 | 0.5695
288.15 K, m1 = 1.301 | 0.5594
288.15 K, m1 = 1.44 | 0.5515
288.15 K, m1 = 1.567 | 0.545
298.15 K, m1 = 0.0025 | 0.9465
298.15 K, m1 = 0.0049 | 0.9271
298.15 K, m1 = 0.0077 | 0.9114
298.15 K, m1 = 0.0132 | 0.8888
298.15 K, m1 = 0.019 | 0.8713
298.15 K, m1 = 0.0272 | 0.8519
298.15 K, m1 = 0.0384 | 0.8318
298.15 K, m1 = 0.0529 | 0.8116
298.15 K, m1 = 0.0731 | 0.7899
298.15 K, m1 = 0.1027 | 0.766
298.15 K, m1 = 0.1458 | 0.7404
298.15 K, m1 = 0.2002 | 0.7169
298.15 K, m1 = 0.2643 | 0.6961
298.15 K, m1 = 0.3687 | 0.6714
298.15 K, m1 = 0.5383 | 0.6442
298.15 K, m1 = 0.7187 | 0.6245
298.15 K, m1 = 0.8905 | 0.6109
298.15 K, m1 = 1.09 | 0.599
298.15 K, m1 = 1.24 | 0.5921
298.15 K, m1 = 1.398 | 0.5862
308.15 K, m1 = 0.0025 | 0.9451
308.15 K, m1 = 0.005 | 0.9256
308.15 K, m1 = 0.0073 | 0.9123
308.15 K, m1 = 0.0099 | 0.9007
308.15 K, m1 = 0.0151 | 0.8818
308.15 K, m1 = 0.0226 | 0.8616
308.15 K, m1 = 0.0332 | 0.8402
308.15 K, m1 = 0.0491 | 0.8165
308.15 K, m1 = 0.075 | 0.7889
308.15 K, m1 = 0.1006 | 0.7687
308.15 K, m1 = 0.1313 | 0.7499
308.15 K, m1 = 0.1962 | 0.7209
308.15 K, m1 = 0.2752 | 0.6962
308.15 K, m1 = 0.3636 | 0.6759
308.15 K, m1 = 0.4739 | 0.657
308.15 K, m1 = 0.6044 | 0.6402
308.15 K, m1 = 0.7598 | 0.6252
308.15 K, m1 = 0.9162 | 0.6138
308.15 K, m1 = 1.087 | 0.6044
308.15 K, m1 = 1.251 | 0.5978
308.15 K, m1 = 1.397 | 0.5934
308.15 K, m1 = 1.526 | 0.5906
